Data taken from patent US20040082591A1, “Therapeutic heterocyclic compounds” (priority 2001, published 2004).

Test system: 5-HT1B receptors and 5-HT1D receptors
Assay: Radioligand competition binding with [3H]-GR125743 on membranes of transfected CHO cells
Details: not given
Source text: Other assays that may be used to measure for example affinity of compounds of the present invention for 5HT1B and 5HT1D receptors are described in J. Med. Chem 41:1218-1235, 1228 (1998) and J. Med. Chem 42:4981-5001, (1999) and incorporated by reference herein. These assays may be used with some modifications: Frozen membrane preparations of a stably transfected chinese hamster ovary (CHO) cell line expressing 5-HT1B receptors and 5-HT1D receptors are thawed rapidly, briefly vortexed, and diluted in assay buffer (AB) containing 50 mM Tris-HCl, 4 mM MgCl2, 4 mM CaCl2, 1 mM EDTA, and adjusted to pH 7.4 with NaOH. Final protein concentrations are—0.185 mg/ml for 5-HT1B, and 0.4 mg/ml for 5-HT1D membranes. Test compounds are evaluated in competition assays using [^3H]-GR125743 (Amersham). The ligand concentration in both assays was 0.27 nM. […] The 5-HT1B and 5-HT1D assays are performed simultaneously on one 96-well assay plate, one drug/compound per plate. Ten serial dilutions (1 uM to 4 pM, final concentration) of compound are prepared in DMSO from 10 mM stock solutions. Incubation mixtures are prepared in quadruplicate in 96-deep well assay plates (Matrix 1 ml). […] The plates are then counted on a Packard TopCount to determine CPM's per well. Ki values are determined for each test compound utilizing the graphic and analytical software package, GraphPad Prism. […]

Question: For `COc1ccc(NC(=O)c2ccc(-c3ccncc3)c(C)c2)cc1N1CCN(C)CC1` [[^3H]-GR125743], which Kd is on record?
Answer: 0.15 to 0.25 nM

Test system: Hartley guinea pigs
Assay: Learned helplessness test
Format: in vivo, guinea pig
Details: antidepressant/antianxiety activity
Source text: The utility of the compounds for example to treat depression may be shown via a learned helplessness test in guinea pigs, which is used extensively as correlative to antidepressant activity in humans. The learned helplessness test may be carried out as follows: Seventy male Hartley guinea pigs, each weighing about 350-425 gm are fed ad lib, and are housed under a 12-hour light/dark cycle. The procedure consists of two phases: The induction phase and the avoidance training phase. In the induction phase, subjects are placed into standard shuttle cages (20 L×16 W×21 centimeters H) which are fitted with a grid floor. Electrical stimulation (1.25 mA, 10 sec duration) is delivered to the floor of the cage every 90-sec during 1 hour daily sessions. Subjects have no opportunity to escape or to avoid shocks. Induction is conducted for 2 consecutive days.
In avoidance training, testing is also conducted in the shuttle cages, except that the subjects are not returned to the same chamber in which induction had occurred. Additionally, all cages are fitted with a partition with an arch in the center of the cage, through which animals can pass between the left and right halves of the cage. The procedure employed is a standard shuttle avoidance procedure in which a compound, conditioned stimulus (a 10-sec presentation of a tone and turning on of a lamp on the side of the cage that the guinea pig was occupying) serves to indicate presentation of electrical current to the floor of the cage. Shock is presented for a 5 sec period, 5 sec after initiation of the conditioned stimulus. Entry into the opposite side of the shuttle cage via the arched partition prior to shock onset results in the end of the trial (avoidance response). If shock is delivered, entry into the opposite side of the cage results in termination of the shock and CS (escape). Reversal of learned helplessness in the induction subjects correlates to antidepressant activity of the test compound.
Avoidance training, 45-min in duration, is conducted on 2 consecutive days, beginning 48 hr after the final induction session. Seventy subjects are assigned to 1 of 6 groups of 11-12 animals. The groups are as follows:
Groups 2-6 are given induction and avoidance training sessions. Injections are administered immediately following induction sessions and 1 hour prior to avoidance training sessions. A second injection is administered 7-8 hours following the first injection, for a total of 9 injections administered over 5 days. No injections are administered following the final avoidance training session.
Compounds of the present invention may be administered in a volume of 1 mL/kg bwt. Imipramine is dissolved in DI water. The compounds are dissolved in DI water, to which was added a few drops of lactic acid (pH 5.5). […]

Question: For `CCC(=O)N1CCN(c2ccc(NC(=O)c3cc(=O)c4cc(F)cc(N5CCN(C)CC5)c4o3)cc2)CC1` [Example 72, 6-flouro-8-(4-methyl-piperazin-1-yl)-4-oxo-4H-chromene-2-carboxylic acid [4-(4-propionyl-piperazin-1-yl)-phenyl]-amide], which “activity in the learned helplessness assay” value (“activity” for short) is on record?
Answer: demonstrate activity

Question: For `CCS(=O)(=O)N1CCN(c2ccc(NC(=O)c3cc(=O)c4cc(F)cc(N5CCN(C)CC5)c4o3)cc2)CC1` [Example 71], which “activity” value is on record?
Answer: demonstrate activity

Question: For `CCC(=O)N1CCN(c2ccc(NC(=O)c3cc(=O)c4cc(OC)cc(N5CCN(C)CC5)c4o3)cc2)CC1` [Example 44, 6-Methoxy-8-(4-methyl-piperazin-1-yl)-4-oxo-4H-chromene-2-carboxylic Acid [4-(4-propionyl-piperazin-1-yl)-phenyl]-amide], which “activity” value is on record?
Answer: demonstrate activity

Question: With `COc1cc(N2CCN(C)CC2)c2oc(C(=O)Nc3ccc(N4CCOCC4)cc3)cc(=O)c2c1` [Example 31, 6-Methoxy-8-(4-methyl-piperazin-1-yl)-4-oxo-4H-chromene-2-carboxylic acid (4-morpholin-4-yl-phenyl)-amide] as the compound, how does the “activity” value read?
Answer: demonstrate activity

Target: 5-HT1B and 5HT1D receptors
Assay: not given
Details: saturation studies, guinea pig cortex; 'may result in a measurement of'; read-out: Kd value of [3H]GR125743; cited from earlier work

Question: Which Kd does the source give for `COc1ccc(NC(=O)c2ccc(-c3ccncc3)c(C)c2)cc1N1CCN(C)CC1` [[^3H]-GR125743] here?
Answer: 0.046 ± 0.004 nM

Test system: not given
Assay: not given
Details: not given

Question: Which melting point does the source give for `CN1CCN(c2cccc3c(=O)cc(C(=O)Nc4ccc(N5CCOCC5)cc4O)oc23)CC1` [Example 22, 8-(4-Methyl-piperazin-1-yl)-4-oxo-4H-chromene-2-carboxylic Acid (2-hydroxy-4-morpholin-4-yl-phenyl)-amide] here?
Answer: 248.4 to 249.6 °C

Question: For `CN1CCN(c2cccc3c2OC(C(=O)Nc2ccc(N4CCOCC4)cc2)CC3)CC1` (racemic) [Example 75, Racemic-8-(4-Methyl-piperazin-1-yl)-chroman-2-carboxylic acid (4-morpholin-4-yl-phenyl)-amide], which melting point is on record?
Answer: 215 to 216 °C

Question: Which melting point does the source give for `CN1CCN(c2cccc3c2OC(C(=O)Nc2ccc(N4CCOCC4)cc2)CC3)CC1` (single isomer, unassigned; (+)) [Example 76, (+)-8-(4-Methyl-piperazin-1-yl)-chroman-2-carboxylic Acid (4-morpholin-4-yl-phenyl)-amide] here?
Answer: 206 to 207 °C

Question: For `CCS(=O)(=O)N1CCN(c2ccc(NC(=O)c3cc(=O)c4cc(F)cc(N5CCN(C)CC5)c4o3)cc2)CC1` [Example 71], which melting point is on record?
Answer: 233 to 234 °C

Question: For `COc1cc(N2CCN(C)CC2)c2oc(C(=O)Nc3ccc(N4CCOCC4)cc3)cc(=O)c2c1` [Example 31, 6-Methoxy-8-(4-methyl-piperazin-1-yl)-4-oxo-4H-chromene-2-carboxylic acid (4-morpholin-4-yl-phenyl)-amide], which melting point is on record?
Answer: 234 to 236 °C

Question: With `CN1CCN(c2cccc3c2OC(C(=O)Nc2ccc(N4CCOCC4)cc2)CC3=O)CC1` (single isomer, unassigned) [Example 80, 8-(4-Methyl-piperazin-1-yl)-4-oxo-chroman-2-carboxylic Acid (4-morpholin-4-yl-phenyl)-amide] as the compound, how does the melting point read?
Answer: 215 °C (dec.)

Question: With `COc1cc(N2CCN(C)CC2)c2oc(C(=O)Nc3ccc(N4CCN(C(=O)CCO)CC4)cc3)cc(=O)c2c1` [Example 68, 6-Methoxy-8-(4-methyl-piperazin-1-yl)-4-oxo-4H-chromene-2-carboxylic Acid {4-[4-(3-hydroxy-propanoyl)-piperazin-1-yl]-phenyl}-amide] as the compound, how does the melting point read?
Answer: 195 to 197 °C

Question: With `CN1CCN(c2cccc3c(=O)cc(-c4nc5ccc(N6CCOCC6)cc5o4)oc23)CC1` [Example 21, 8-(4-Methyl-piperazin-1-yl)-2-(6-morpholin-4-yl-benzooxazol-2-yl)-chromen-4-one] as the compound, how does the melting point read?
Answer: 158.1 to 158.8 °C

Question: With `CN1CCN(c2cccc3c2OC(C(=O)Nc2ccc(N4CCOCC4)cc2)CC3)CC1` (single isomer, unassigned; (-)) [Example 77, (−)-8-(4-Methyl-piperazin-1-yl)-chroman-2-carboxylic Acid (4-morpholin-4-yl-phenyl)-amide] as the compound, how does the melting point read?
Answer: 205.5 to 207 °C

Question: Which melting point does the source give for `CCNC(=O)N1CCN(c2ccc(NC(=O)c3cc(=O)c4cc(F)cc(N5CCN(C)CC5)c4o3)cc2)CC1` [Example 81, 4-[4-({1-[6-Fluoro-8-(4-methyl-piperazin-1-yl)-4-oxo-4H-chromen-2-yl]-methanoyl}-amino)-phenyl]-piperazine-1-carboxylic Acid Ethylamide] here?
Answer: 236 to 238 °C

Question: With `CN1CCN(c2cc(F)cc3c(=O)cc(C(=O)Nc4ccc(N5CCN(C(=O)CCO)CC5)cc4)oc23)CC1` [Example 73, 6-Fluoro-8-(4-methyl-piperazin-1-yl)-4-oxo-4H-chromene-2-carboxylic Acid {4-[4-(3-hydroxy-propanoyl)-piperazin-1-yl]-phenyl}-amide] as the compound, how does the melting point read?
Answer: 195 to 199 °C

Question: For `CN1CCN(c2cccc3c(=O)cc(C(=O)Nc4ccc(N5CCOCC5)cc4)oc23)CC1` [Example 1, 8-(4-methyl-1-piperazinyl)-N-[4-(4-morpholinyl)phenyl]-4-oxo-4H-chromene-2-carboxamide], which melting point is on record?
Answer: 217 to 218 °C (dec.)

Question: Which melting point does the source give for `CN1CCN(c2cccc3c2OC(C(=O)Nc2ccc(N4CCOCC4)cc2)CC3=O)CC1` (single isomer, unassigned) [Example 79, 8-(4-Methyl-piperazin-1-yl)-4-oxo-chroman-2-carboxylic Acid (4-morpholin-4-yl-phenyl)-amide] here?
Answer: 216 °C (dec.)

Question: Which melting point does the source give for `CN1CCN(c2cccc3c2OC(C(=O)Nc2ccc(N4CCOCC4)cc2)CC3=O)CC1` (racemic) [Example 78, racemic-8-(4-methyl-piperazin-1-yl)-4-oxo-chroman-2-carboxylic acid (4-morpholin-4-yl-phenyl)-amide] here?
Answer: 215 to 216 °C
